{"source": "patent US20250177340A1", "about": "“Tartaric Acid Analogs and Uses Thereof” (Lapix Therapeutics, Inc., priority 2021, published 2025)", "key": {"PD-1": {"test_system": "PD-1", "assay": "Percent PD-1+/CD8+ T-cells in splenocytes after a single dose, melanoma murine model", "type": "in vivo, mice", "procedure": "(§1) The pharmacodynamic (PD) effects of a single IV dose of Compound B in a melanoma murine model were evaluated. B16F10 melanoma cells were grown in RPMI 1640 media supplemented with 10% FBS and antibiotics (penicillin/streptomycin) using T75 flasks. When cells reached 70-80% confluency, they were treated with 3 ml of 0.25% Trypsin/EDTA. Afterward, detached cells were harvested. A single-cell suspension was prepared in PBS. An IV injection of 10^5 cells in mice marked day −3 of the experiment.\n(§2) Animals were housed four per cage, and had access to food and water ad libitum. Compound B was dissolved in sterile PBS, and pH was adjusted to approximately 7.5. Sterile PBS served as control.\n(§3) Three days after the IV injection of melanoma cells, animals in the baseline group (n=3) were sacrificed and their spleens were collected for KLRG-1, CTLA-4, and PD-1 analysis. At each predetermined time-point (24, 48, and 120 hours after dosing) three animals from each group were sacrificed for splenocyte analysis of KLRG-1, CTLA-4, and PD-1 expression levels, and expression levels were compared to baseline.\n(§4) Spleens collected for splenocyte analysis were prepared into a single-cell suspension for cellular phenotyping by flow cytometry. Cells were stained and gated for CD8. Percent KLRG-1+, CTLA-4+, and PD-1+ CD8+ T-cells were evaluated using flow cytometry.\nThe PD effects of a single IV dose of Compound C were evaluated in a melanoma murine model conducted as described in Example 10. […] This study also evaluated whether Compound C was pharmacodynamically active orally.\nIn a prior study, Compound C was dosed at 1 mg IV QD for seven days. […] A single PO dose was chosen to confirm oral activity of Compound C. Compound C was dissolved in DMSO, and then diluted in sterile PBS. pH was adjusted to approximately 7.5.\nThe oral and intravenous PD effects of a single dose of Compound E were evaluated in a melanoma murine model conducted as described in Example 10.\nCompound E was dissolved in DMSO, and then diluted in sterile PBS. pH was adjusted to approximately 7.5."}, "Granzyme B and IFN-γ": {"test_system": "Granzyme B and IFN-γ", "assay": "GzmB+/IFN-γ+ double-positive murine CD8+ T-cells, Example 7", "type": "cell-based, C57BL/6 mice", "excerpt": "In this study, the effects of increasing doses of compound B and compound C on proliferation (CFSE staining), activation (Granzyme B and IFN-γ), and checkpoint modulation (PD1 and TIM3) of murine CD8+ T-cells in the presence and absence of phosphatidylserine (PS) were explored.\nPreparation of test materials: 30:70 PS:DMPC liposomes were synthesized in PBS. […] Compound C was first dissolved in a small volume of DMSO before diluting to the final desired concentration.\nTissue culture and dosing: Splenocytes of C57BL/6 mice were stained with CFSE and prepared, cultured, and dosed. Cells were seeded at 4×10^5 cells/well.\nControls: Two controls were used. A negative control dosed with 10 ng/ml IL-2 was used, and a positive control dosed with 20 μg/ml ConA and 10 ng/ml IL-2 was used.\nTreatment: After ConA stimulation (10 μg/ml), cells were dosed with log 3 dilution of compound B or compound C to cover a range from 1×10^−3 to 30 mM in duplicates with or without 0.1 mM PS:DMPC liposomes. All wells were dosed with 10 ng/ml of IL-2.\nFlow cytometer: Flow cytometer analysis was performed to assess cell proliferation by CFSE, activation by double staining for Granzyme B (GzmB) and IFN-γ, checkpoint modulation by double staining for PD-1 and TIM3.\nExposure-response analysis: Change from baseline was calculated for each marker as follows:\nConcentration versus change was fitted to an appropriate three-, four- or five-parameter log-logistic model using “dre” package in “R.”\nThe fold change from baseline GzmB+/IFN-γ+ double-positive CD8+ T-cells as a function of increasing doses of compound B was calculated using equation 1, where Responsecontrol was GzmB+/IFN-γ+ double-positive CD8+ T-cells in cells treated with IL-2 alone and Responsetreatment was GzmB+/IFN-γ+ double-positive CD8+ T-cells at each dose of compound B. The baseline PS response was calculated using the same equation with Responsetreatment as the GzmB+/IFN-γ+ double-positive CD8+ T-cells treated with 0.1 mM PS."}, "B16F10 melanoma cells [1]": {"test_system": "B16F10 melanoma cells", "assay": "Dose-dependent tumor regression in established B16F10 tumors (Example 15)", "type": "in vivo, C57BL6 mice", "procedure": "C57BL6 mice received 10^5 B16F10 melanoma cells via SC injection at day 0. Tumor growth was monitored until tumor size reached 200 to 300 mm^3, at which time the mouse was randomized into one of the treatment groups or the control group. Mice were dosed orally until the end of the study."}, "melanoma cells": {"test_system": "melanoma cells", "assay": "Tumor growth inhibition and overall survival, two doses of Compound B (Example 14)", "type": "in vivo, mice", "procedure": "This study was designed to evaluate the effects of two different doses of Compound B on tumor growth and the overall survival of animals implanted SC with 10^5 melanoma cells. The study was carried out in accordance with the study described in Example 13, except that mice received either placebo, 0.4 mg/mouse PO QD of Compound B for seven days starting at day 7 after tumor implantation, or 4 mg/mouse PO QD of Compound B for seven days starting at day 7 after tumor implantation."}, "CTLA-4": {"test_system": "CTLA-4", "assay": "Percent CTLA-4+/CD8+ T-cells in splenocytes after a single dose, melanoma murine model", "type": "in vivo, mice", "procedure": "as §1, §2, §3, §4"}, "B16F10 melanoma cells [2]": {"test_system": "B16F10 melanoma cells", "assay": "Lung metastasis and survival after IV B16F10 melanoma cells (Example 16)", "type": "in vivo, C57BL6 mice", "settings": "4 mg/mouse orally daily for two weeks", "procedure": "C57BL6 mice received 10^5 B16F10 melanoma cells via IV injection at day 0. At day 7, mice were randomized into one of two groups (n=6 per group): an untreated group and a group treated orally with Compound B at 4 mg/mouse daily for two weeks.\nAt the end of the first week of treatment (14 days after tumor injection), three mice from each group were euthanized, and lung metastasis was counted (FIG. 11A). By the end of the second week of treatment (21 days after tumor injection), two out of the three remaining control mice had died. The remaining control mouse and the three remaining Compound B-treated mice were euthanized, and lung metastasis assessed (FIG. 111B)."}, "[3]": {"settings": "increasing doses, absence of PS"}, "[4]": {"settings": "0.14 mg/mouse IV single dose, 24 h"}, "[5]": {"settings": "0.14 mg/mouse IV single dose, 48 h"}, "[6]": {"settings": "0.14 mg/mouse IV single dose, 120 h"}, "[7]": {"settings": "0.7 mg/mouse IV single dose, 24 h"}, "[8]": {"settings": "0.7 mg/mouse IV single dose, 48 h"}, "[9]": {"settings": "0.7 mg/mouse IV single dose, 120 h"}, "[10]": {"settings": "1.4 mg/mouse IV single dose, 24 h"}, "[11]": {"settings": "1.4 mg/mouse IV single dose, 48 h"}, "[12]": {"settings": "1.4 mg/mouse IV single dose, 120 h"}}}
{"smiles": "O=C(O)[C@H](O)[C@@H](O)C(=O)OCCC(c1ccccc1)c1ccccc1", "note": "[Compound C, (2R,3R)-4-(3,3-diphenylpropoxy)-2,3-dihydroxy-4-oxobutanoic acid]", "values": [{"measurement": "PD-1+/CD8+ T-cells, mean", "setting": "PD-1; 0.025 mg/mouse IV single dose, 24 h", "result": 35, "unit": "%"}, {"measurement": "PD-1+/CD8+ T-cells, mean", "setting": "PD-1; 0.1 mg/mouse IV single dose, 24 h", "result": 34, "unit": "%"}, {"measurement": "PD-1+/CD8+ T-cells, mean", "setting": "PD-1; 0.25 mg/mouse IV single dose, 24 h", "result": 27, "unit": "%"}, {"measurement": "PD-1+/CD8+ T-cells, mean", "setting": "PD-1; 1 mg/mouse IV single dose, 24 h", "result": 26, "unit": "%"}, {"measurement": "PD-1+/CD8+ T-cells, mean", "setting": "PD-1; 2.5 mg/mouse po single dose, 24 h", "result": 33, "unit": "%"}, {"measurement": "decrease in PD-1+/CD8+ T-cells compared to baseline", "setting": "PD-1; 0.25- and 1-mg IV groups", "result": "approximately 20%"}, {"measurement": "decrease in PD-1+/CD8+ T-cells compared to time match control", "setting": "PD-1; 0.25- and 1-mg IV groups", "result": "approximately 30%"}, {"measurement": "change in PD-1+/CD8+ T-cells compared to baseline or control", "setting": "PD-1; remaining groups (0.025, 0.1 mg IV, 2.5 mg PO)", "result": "No meaningful changes"}, {"measurement": "fold increase in GzmB+/IFN-γ+ double-positive CD8+ T-cells vs PS treated cell", "setting": "Granzyme B and IFN-γ; highest dose, 0.1 mM PS", "result": 18, "unit": "fold"}, {"measurement": "fold increase in GzmB+/IFN-γ+ double-positive CD8+ T-cells vs negative control", "setting": "Granzyme B and IFN-γ; highest dose, 0.1 mM PS", "result": 10, "unit": "fold"}, {"measurement": "fold increase in GzmB+/IFN-γ+ double-positive CD8+ T-cells vs negative control", "setting": "Granzyme B and IFN-γ; [3]", "result": "about 30 fold"}]}
{"smiles": "O=C(O)[C@H](O)[C@@H](O)C(=O)OCCCc1ccccc1", "note": "[Compound B, (2R,3R)-2,3-dihydroxy-4-oxo-4-(3-phenylpropoxy)butanoic acid]", "values": [{"measurement": "PD-1+/CD8+ T-cells, mean", "setting": "PD-1; [4]", "result": 38.6, "unit": "%"}, {"measurement": "PD-1+/CD8+ T-cells, mean", "setting": "PD-1; [5]", "result": 32.5, "unit": "%"}, {"measurement": "PD-1+/CD8+ T-cells, mean", "setting": "PD-1; [6]", "result": 59.7, "unit": "%"}, {"measurement": "PD-1+/CD8+ T-cells, mean", "setting": "PD-1; [7]", "result": 44.5, "unit": "%"}, {"measurement": "PD-1+/CD8+ T-cells, mean", "setting": "PD-1; [8]", "result": 26.7, "unit": "%"}, {"measurement": "PD-1+/CD8+ T-cells, mean", "setting": "PD-1; [9]", "result": 58.2, "unit": "%"}, {"measurement": "reduction in PD-1+/CD8+ T-cell compared to control", "setting": "PD-1; 1.2 mg group, day 5", "result": 41.8, "unit": "%"}, {"measurement": "PD-1+/CD8+ T-cells, mean", "setting": "PD-1; [10]", "result": 42.3, "unit": "%"}, {"measurement": "PD-1+/CD8+ T-cells, mean", "setting": "PD-1; [11]", "result": 30.4, "unit": "%"}, {"measurement": "PD-1+/CD8+ T-cells, mean", "setting": "PD-1; [12]", "result": 34.7, "unit": "%"}, {"measurement": "day by which all animals died of disease", "setting": "B16F10 melanoma cells [1]; 0.1 mg PO, tumors 200 to 300 mm^3 at start", "result": "≤ 20", "unit": "days"}, {"measurement": "day by which animals died", "setting": "B16F10 melanoma cells [1]; 0.4 mg PO", "result": "≤ 30", "unit": "days"}, {"measurement": "tumor progression versus low-dose group and untreated mice", "setting": "B16F10 melanoma cells [1]; 0.4 mg PO", "result": "progressed more slowly"}, {"measurement": "tumor growth", "setting": "B16F10 melanoma cells [1]; 1 mg PO", "result": "Tumor growth control was observed early on"}, {"measurement": "tumor growth", "setting": "B16F10 melanoma cells [1]; 4 mg PO", "result": "Tumor regression was observed"}, {"measurement": "efficacy of low dose relative to high-dose (4 mg) treatment", "setting": "melanoma cells; 0.4 mg PO", "result": 70, "unit": "%"}, {"measurement": "survival", "setting": "melanoma cells; 0.4 mg and 4 mg/mouse PO QD groups", "result": "significant increase in survival"}, {"measurement": "mice tumor-free for at least 10 days after treatment stopped", "setting": "melanoma cells; 0.4 mg/mouse PO QD for seven days", "result": 70, "unit": "%"}, {"measurement": "mice tumor-free for at least 10 days after treatment stopped", "setting": "melanoma cells; 4 mg/mouse PO QD for seven days", "result": 90, "unit": "%"}, {"measurement": "fold increase in GzmB+/IFN-γ+ double-positive CD8+ T-cells vs PS treated cell", "setting": "Granzyme B and IFN-γ; highest dose, 0.1 mM PS", "result": 4.6, "unit": "fold"}, {"measurement": "fold increase in GzmB+/IFN-γ+ double-positive CD8+ T-cells vs negative control", "setting": "Granzyme B and IFN-γ; highest dose, 0.1 mM PS", "result": 2, "unit": "fold"}, {"measurement": "fold increase in GzmB+/IFN-γ+ double-positive CD8+ T-cells vs negative control", "setting": "Granzyme B and IFN-γ; [3]", "result": "more than 16 fold"}, {"measurement": "CTLA-4+/CD8+ T-cells, mean", "setting": "CTLA-4; [4]", "result": 9.8, "unit": "%"}, {"measurement": "CTLA-4+/CD8+ T-cells, mean", "setting": "CTLA-4; [5]", "result": 5.3, "unit": "%"}, {"measurement": "CTLA-4+/CD8+ T-cells, mean", "setting": "CTLA-4; [6]", "result": 11.9, "unit": "%"}, {"measurement": "CTLA-4+/CD8+ T-cells, mean", "setting": "CTLA-4; [7]", "result": 8.5, "unit": "%"}, {"measurement": "CTLA-4+/CD8+ T-cells, mean", "setting": "CTLA-4; [8]", "result": 5.7, "unit": "%"}, {"measurement": "CTLA-4+/CD8+ T-cells, mean", "setting": "CTLA-4; [9]", "result": 12.5, "unit": "%"}, {"measurement": "CTLA-4+/CD8+ T-cells, mean", "setting": "CTLA-4; [10]", "result": 7.4, "unit": "%"}, {"measurement": "CTLA-4+/CD8+ T-cells, mean", "setting": "CTLA-4; [11]", "result": 5.6, "unit": "%"}, {"measurement": "CTLA-4+/CD8+ T-cells, mean", "setting": "CTLA-4; [12]", "result": 11.7, "unit": "%"}, {"measurement": "decrease from baseline in CTLA-4+/CD8+ T-cells", "setting": "CTLA-4; single IV dose (0.14, 0.7, 1.4 mg), 48 h", "result": "approximately 35%"}, {"measurement": "reduction in CTLA-4+/CD8+ T-cells compared to same time point in control group", "setting": "CTLA-4; single IV injection, 48 h", "result": "approximately 38%"}, {"measurement": "lung metastasis", "setting": "B16F10 melanoma cells [2]", "result": "controlled (e.g., prevented) metastasis"}, {"measurement": "survival compared to untreated mice", "setting": "B16F10 melanoma cells [2]", "result": "improved survival"}]}
